From the supplement of paper PMC10307832

How the values were obtained:
Test in all cases: relative viability (nuclei count vs DMSO), 5 days (fraction); higher = more cells survive
[1] = compound: Nc1ccn([C@@H]2O[C@H](CO)[C@@H](O)C2(F)F)c(=O)n1 [Gemcitabine] + COc1cccc2cc(-c3nc([C@H]4CC[C@H](C(=O)O)CC4)n4ncnc(N)c34)[nH]c12 [OSI-027] (partner 0.5 µM)
In short: (§1)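 Values are medians from duplicate plates. Each reflects relative viability, defined as the nuclei count of treated wells over that of vehicle wells. Lung cancer cell lines in 1536-well plates were pin-tool dosed one day after seeding with one drug alone or with a fixed anchor-drug dose plus five library-drug doses (not always all listed) in √10 steps, then fixed, stained and imaged at 4× after 5 days.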

[2] = compound: Nc1ccn([C@@H]2O[C@H](CO)[C@@H](O)C2(F)F)c(=O)n1 [Gemcitabine] + CS(=O)(=O)CCNCc1ccc(-c2ccc3ncnc(Nc4ccc(OCc5cccc(F)c5)c(Cl)c4)c3c2)o1 [Lapatinib] (partner 2 µM)
In short: as §1

[3] = compound: Nc1ccn([C@@H]2O[C@H](CO)[C@@H](O)C2(F)F)c(=O)n1 [Gemcitabine] + C[C@]1(O)C[C@@H](c2nc(-c3ccc4ccc(-c5ccccc5)nc4c3)c3c(N)nccn32)C1 [Linsitinib] (partner 1 µM)
In short: as §1

[4] = compound: Nc1ccn([C@@H]2O[C@H](CO)[C@@H](O)C2(F)F)c(=O)n1 [Gemcitabine] + Cc1nc(NC(=O)N2CCC[C@H]2C(N)=O)sc1-c1ccnc(C(C)(C)C(F)(F)F)c1 [Alpelisib] (partner 2 µM)
In short: as §1

Cell Line NCI-H1993 has a relative viability ([1]; first compound 0.001 µM) of 0.539, a relative viability ([1]; first compound 0.003162 µM) of 0.534 and a relative viability ([1]; first compound 0.01 µM) of 0.541. The relative viability ([1]; first compound 0.03162 µM) was 0.503, the relative viability ([1]; first compound 0.1 µM) was 0.518 and the relative viability ([2]; first compound 0.001 µM) was 0.77. It also gave a relative viability ([2]; first compound 0.003162 µM) of 0.769, a relative viability ([2]; first compound 0.01 µM) of 0.853 and a relative viability ([2]; first compound 0.03162 µM) of 0.546. For the same cell line, the relative viability ([2]; first compound 0.1 µM) was 0.495, the relative viability ([3]; first compound 0.001 µM) was 0.689 and the relative viability ([3]; first compound 0.003162 µM) was 0.723. For the same cell line, the relative viability ([3]; first compound 0.01 µM) was 0.622, the relative viability ([3]; first compound 0.03162 µM) was 0.599 and the relative viability ([3]; first compound 0.1 µM) was 0.579. It also gave a relative viability ([4]; first compound 0.001 µM) of 0.706, a relative viability ([4]; first compound 0.003162 µM) of 0.642 and a relative viability ([4]; first compound 0.01 µM) of 0.528. The relative viability ([4]; first compound 0.03162 µM) was 0.528 and the relative viability ([4]; first compound 0.1 µM) was 0.491.

NCI-H2009 gave a relative viability ([1]; first compound 0.001 µM) of 0.566, a relative viability ([1]; first compound 0.003162 µM) of 0.303 and a relative viability ([1]; first compound 0.01 µM) of 0.167. The relative viability ([1]; first compound 0.03162 µM) was 0.133, the relative viability ([1]; first compound 0.1 µM) was 0.111 and the relative viability ([2]; first compound 0.001 µM) was 0.929. It also gave a relative viability ([2]; first compound 0.003162 µM) of 0.624, a relative viability ([2]; first compound 0.01 µM) of 0.205 and a relative viability ([2]; first compound 0.03162 µM) of 0.129. It also gave a relative viability ([2]; first compound 0.1 µM) of 0.192, a relative viability ([3]; first compound 0.001 µM) of 1.23 and a relative viability ([3]; first compound 0.003162 µM) of 0.722. The relative viability ([3]; first compound 0.01 µM) was 0.29, the relative viability ([3]; first compound 0.03162 µM) was 0.156 and the relative viability ([3]; first compound 0.1 µM) was 0.119. It also gave a relative viability ([4]; first compound 0.001 µM) of 1.15, a relative viability ([4]; first compound 0.003162 µM) of 0.552 and a relative viability ([4]; first compound 0.01 µM) of 0.276. It also gave a relative viability ([4]; first compound 0.03162 µM) of 0.12 and a relative viability ([4]; first compound 0.1 µM) of 0.112.

In the case of NCI-H2023, the relative viability ([1]; first compound 0.001 µM) is reported as 0.417, the relative viability ([1]; first compound 0.003162 µM) is reported as 0.342 and the relative viability ([1]; first compound 0.01 µM) is reported as 0.128. For the same cell line, the relative viability ([1]; first compound 0.03162 µM) was 0.0817, the relative viability ([1]; first compound 0.1 µM) was 0.0589 and the relative viability ([2]; first compound 0.001 µM) was 1.04. It also gave a relative viability ([2]; first compound 0.003162 µM) of 0.99, a relative viability ([2]; first compound 0.01 µM) of 0.424 and a relative viability ([2]; first compound 0.03162 µM) of 0.127. For the same cell line, the relative viability ([2]; first compound 0.1 µM) was 0.0738, the relative viability ([3]; first compound 0.001 µM) was 0.8 and the relative viability ([3]; first compound 0.003162 µM) was 0.631. For the same cell line, the relative viability ([3]; first compound 0.01 µM) was 0.478, the relative viability ([3]; first compound 0.03162 µM) was 0.0945 and the relative viability ([3]; first compound 0.1 µM) was 0.0741. It also gave a relative viability ([4]; first compound 0.001 µM) of 0.703, a relative viability ([4]; first compound 0.003162 µM) of 0.542 and a relative viability ([4]; first compound 0.01 µM) of 0.415. For the same cell line, the relative viability ([4]; first compound 0.03162 µM) was 0.214 and the relative viability ([4]; first compound 0.1 µM) was 0.066.

With NCI-H2085 the relative viability ([1]; first compound 0.001 µM) was 0.896, the relative viability ([1]; first compound 0.003162 µM) was 0.75 and the relative viability ([1]; first compound 0.01 µM) was 0.479. The relative viability ([1]; first compound 0.03162 µM) was 0.414, the relative viability ([1]; first compound 0.1 µM) was 0.189 and the relative viability ([2]; first compound 0.001 µM) was 0.811. The relative viability ([2]; first compound 0.003162 µM) was 0.811, the relative viability ([2]; first compound 0.01 µM) was 0.668 and the relative viability ([2]; first compound 0.03162 µM) was 0.434. The relative viability ([2]; first compound 0.1 µM) was 0.302, the relative viability ([3]; first compound 0.001 µM) was 0.795 and the relative viability ([3]; first compound 0.003162 µM) was 0.967. It also gave a relative viability ([3]; first compound 0.01 µM) of 0.705, a relative viability ([3]; first compound 0.03162 µM) of 0.57 and a relative viability ([3]; first compound 0.1 µM) of 0.404. For the same cell line, the relative viability ([4]; first compound 0.001 µM) was 0.892, the relative viability ([4]; first compound 0.003162 µM) was 0.959 and the relative viability ([4]; first compound 0.01 µM) was 0.765. For the same cell line, the relative viability ([4]; first compound 0.03162 µM) was 0.57 and the relative viability ([4]; first compound 0.1 µM) was 0.429.

In the case of NCI-H2087, the relative viability ([1]; first compound 0.001 µM) is reported as 0.532, the relative viability ([1]; first compound 0.003162 µM) is reported as 0.229 and the relative viability ([1]; first compound 0.01 µM) is reported as 0.112. For the same cell line, the relative viability ([1]; first compound 0.03162 µM) was 0.0781, the relative viability ([1]; first compound 0.1 µM) was 0.0817 and the relative viability ([2]; first compound 0.001 µM) was 0.9. It also gave a relative viability ([2]; first compound 0.003162 µM) of 0.814, a relative viability ([2]; first compound 0.01 µM) of 0.396 and a relative viability ([2]; first compound 0.03162 µM) of 0.17. For the same cell line, the relative viability ([2]; first compound 0.1 µM) was 0.161, the relative viability ([3]; first compound 0.001 µM) was 0.93 and the relative viability ([3]; first compound 0.003162 µM) was 0.808. For the same cell line, the relative viability ([3]; first compound 0.01 µM) was 0.579, the relative viability ([3]; first compound 0.03162 µM) was 0.217 and the relative viability ([3]; first compound 0.1 µM) was 0.183. The relative viability ([4]; first compound 0.001 µM) was 1.26, the relative viability ([4]; first compound 0.003162 µM) was 0.872 and the relative viability ([4]; first compound 0.01 µM) was 0.38. It also gave a relative viability ([4]; first compound 0.03162 µM) of 0.15 and a relative viability ([4]; first compound 0.1 µM) of 0.14.

NCI-H2126 showed a relative viability ([1]; first compound 0.001 µM) of 0.733, a relative viability ([1]; first compound 0.003162 µM) of 0.596 and a relative viability ([1]; first compound 0.01 µM) of 0.609. The relative viability ([1]; first compound 0.03162 µM) was 0.447, the relative viability ([1]; first compound 0.1 µM) was 0.279 and the relative viability ([2]; first compound 0.001 µM) was 0.704. It also gave a relative viability ([2]; first compound 0.003162 µM) of 0.764, a relative viability ([2]; first compound 0.01 µM) of 0.738 and a relative viability ([2]; first compound 0.03162 µM) of 0.615. It also gave a relative viability ([2]; first compound 0.1 µM) of 0.394, a relative viability ([3]; first compound 0.001 µM) of 0.712 and a relative viability ([3]; first compound 0.003162 µM) of 0.673. The relative viability ([3]; first compound 0.01 µM) was 0.692, the relative viability ([3]; first compound 0.03162 µM) was 0.51 and the relative viability ([3]; first compound 0.1 µM) was 0.315. The relative viability ([4]; first compound 0.001 µM) was 0.749, the relative viability ([4]; first compound 0.003162 µM) was 0.705 and the relative viability ([4]; first compound 0.01 µM) was 0.728. For the same cell line, the relative viability ([4]; first compound 0.03162 µM) was 0.504 and the relative viability ([4]; first compound 0.1 µM) was 0.255.

In the case of NCI-H2228, the relative viability ([1]; first compound 0.001 µM) is reported as 0.614, the relative viability ([1]; first compound 0.003162 µM) is reported as 0.24 and the relative viability ([1]; first compound 0.01 µM) is reported as 0.129. For the same cell line, the relative viability ([1]; first compound 0.03162 µM) was 0.122, the relative viability ([1]; first compound 0.1 µM) was 0.0908 and the relative viability ([2]; first compound 0.001 µM) was 1.06. The relative viability ([2]; first compound 0.003162 µM) was 0.827, the relative viability ([2]; first compound 0.01 µM) was 0.207 and the relative viability ([2]; first compound 0.03162 µM) was 0.109. It also gave a relative viability ([2]; first compound 0.1 µM) of 0.148, a relative viability ([3]; first compound 0.001 µM) of 0.569 and a relative viability ([3]; first compound 0.003162 µM) of 0.666. The relative viability ([3]; first compound 0.01 µM) was 0.186, the relative viability ([3]; first compound 0.03162 µM) was 0.217 and the relative viability ([3]; first compound 0.1 µM) was 0.112. For the same cell line, the relative viability ([4]; first compound 0.001 µM) was 0.74, the relative viability ([4]; first compound 0.003162 µM) was 0.534 and the relative viability ([4]; first compound 0.01 µM) was 0.144. It also gave a relative viability ([4]; first compound 0.03162 µM) of 0.123 and a relative viability ([4]; first compound 0.1 µM) of 0.134.

With NCI-H2347 the relative viability ([1]; first compound 0.001 µM) was 0.434, the relative viability ([1]; first compound 0.003162 µM) was 0.431 and the relative viability ([1]; first compound 0.01 µM) was 0.307. For the same cell line, the relative viability ([1]; first compound 0.03162 µM) was 0.242, the relative viability ([1]; first compound 0.1 µM) was 0.24 and the relative viability ([2]; first compound 0.001 µM) was 0.952. For the same cell line, the relative viability ([2]; first compound 0.003162 µM) was 0.896, the relative viability ([2]; first compound 0.01 µM) was 0.646 and the relative viability ([2]; first compound 0.03162 µM) was 0.655. The relative viability ([2]; first compound 0.1 µM) was 0.467, the relative viability ([3]; first compound 0.001 µM) was 1 and the relative viability ([3]; first compound 0.003162 µM) was 0.918. For the same cell line, the relative viability ([3]; first compound 0.01 µM) was 0.88, the relative viability ([3]; first compound 0.03162 µM) was 0.606 and the relative viability ([3]; first compound 0.1 µM) was 0.458. For the same cell line, the relative viability ([4]; first compound 0.001 µM) was 1.05, the relative viability ([4]; first compound 0.003162 µM) was 0.815 and the relative viability ([4]; first compound 0.01 µM) was 0.752. It also gave a relative viability ([4]; first compound 0.03162 µM) of 0.574 and a relative viability ([4]; first compound 0.1 µM) of 0.324.
